#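 Results reflect a 48-hour exposure of cells in 96-well plates to compound at five concentrations. Abbreviation: GI50, concentration required for 50% inhibition of growth. TGI denotes the concentration required for complete inhibition of growth.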
# What was measured:
# Assay in all cases: inhibition of tumour cell growth, NCI panel, 48 h
# 786-0 renal = tested on: 786-0 renal
# A498 renal = tested on: A498 renal
# A549 NSCLC = tested on: A549 NSCLC
# ACHN renal = tested on: ACHN renal
# CAKI-1 renal = tested on: CAKI-1 renal
# CCRF-CEM leukemia = tested on: CCRF-CEM leukemia
# COLO 205 colon = tested on: COLO 205 colon
# DU-145 prostate = tested on: DU-145 prostate
# EKVX NSCLC = tested on: EKVX NSCLC
# HCC-2998 colon = tested on: HCC-2998 colon
# HCT-116 colon = tested on: HCT-116 colon
# HCT-15 colon = tested on: HCT-15 colon
# HL-60(TB) leukemia = tested on: HL-60(TB) leukemia
# HOP-62 NSCLC = tested on: HOP-62 NSCLC
# HOP-92 NSCLC = tested on: HOP-92 NSCLC
# HS 578T breast = tested on: HS 578T breast
# HT29 colon = tested on: HT29 colon
# IGROV1 ovarian = tested on: IGROV1 ovarian
# K-562 leukemia = tested on: K-562 leukemia
# KM12 colon = tested on: KM12 colon
# LOX IMVI melanoma = tested on: LOX IMVI melanoma
# M14 melanoma = tested on: M14 melanoma
# MALME-3M melanoma = tested on: MALME-3M melanoma
# MCF7 breast = tested on: MCF7 breast
# MDA-MB-231 breast = tested on: MDA-MB-231 breast
# MDA-MB-435 = tested on: MDA-MB-435
# MOLT-4 leukemia = tested on: MOLT-4 leukemia
# NCI-H226 lung = tested on: NCI-H226 lung
# NCI-H23 lung = tested on: NCI-H23 lung
# NCI-H460 lung = tested on: NCI-H460 lung
# NCI-H522 lung = tested on: NCI-H522 lung
# NCI/ADR-RES ovarian = tested on: NCI/ADR-RES ovarian
# OVCAR-3 ovarian = tested on: OVCAR-3 ovarian
# OVCAR-4 ovarian = tested on: OVCAR-4 ovarian
# OVCAR-5 ovarian = tested on: OVCAR-5 ovarian
# PC-3 prostate = tested on: PC-3 prostate
# RPMI-8226 leukemia = tested on: RPMI-8226 leukemia
# SF-268 CNS = tested on: SF-268 CNS
# SF-295 CNS = tested on: SF-295 CNS
# SF-539 CNS = tested on: SF-539 CNS
# SK-MEL-2 melanoma = tested on: SK-MEL-2 melanoma
# SK-MEL-28 melanoma = tested on: SK-MEL-28 melanoma
# SK-MEL-5 melanoma = tested on: SK-MEL-5 melanoma
# SK-OV-3 ovarian = tested on: SK-OV-3 ovarian
# SN12C renal = tested on: SN12C renal
# SNB-19 CNS = tested on: SNB-19 CNS
# SNB-75 CNS = tested on: SNB-75 CNS
# SR leukemia = tested on: SR leukemia
# SW-620 colon = tested on: SW-620 colon
# T-47D breast = tested on: T-47D breast
# TK-10 renal = tested on: TK-10 renal
# U251 CNS = tested on: U251 CNS
# UACC-62 melanoma = tested on: UACC-62 melanoma
# UO-31 renal = tested on: UO-31 renal
# BT-549 breast = tested on: BT-549 breast
# OVCAR-8 ovarian = tested on: OVCAR-8 ovarian
# RXF 393 renal = tested on: RXF 393 renal
# UACC-257 melanoma = tested on: UACC-257 melanoma
structure (smiles),measurement,setting,value
O=C(Oc1cccc2cccnc12)c1cc2c(cc1Cl)SC(N(c1ccc(F)cc1)S(=O)(=O)c1ccc(Br)s1)=NS2(=O)=O,GI50,786-0 renal,> 100 µM
same,TGI,786-0 renal,> 100 µM
same,GI50,A498 renal,34.9 µM
same,TGI,A498 renal,> 100 µM
same,GI50,A549 NSCLC,27.1 µM
same,TGI,A549 NSCLC,> 100 µM
same,GI50,ACHN renal,33.8 µM
same,TGI,ACHN renal,> 100 µM
same,GI50,CAKI-1 renal,31.6 µM
same,TGI,CAKI-1 renal,97.6 µM
same,GI50,CCRF-CEM leukemia,30.5 µM
same,TGI,CCRF-CEM leukemia,> 100 µM
same,GI50,COLO 205 colon,18.5 µM
same,TGI,COLO 205 colon,50.8 µM
same,GI50,DU-145 prostate,27.3 µM
same,TGI,DU-145 prostate,> 100 µM
same,GI50,EKVX NSCLC,22.5 µM
same,TGI,EKVX NSCLC,64.1 µM
same,GI50,HCC-2998 colon,43.5 µM
same,TGI,HCC-2998 colon,> 100 µM
same,GI50,HCT-116 colon,19.3 µM
same,TGI,HCT-116 colon,55 µM
same,GI50,HCT-15 colon,25.9 µM
same,TGI,HCT-15 colon,> 100 µM
same,GI50,HL-60(TB) leukemia,26.4 µM
same,TGI,HL-60(TB) leukemia,> 100 µM
same,GI50,HOP-62 NSCLC,50.8 µM
same,TGI,HOP-62 NSCLC,> 100 µM
same,GI50,HOP-92 NSCLC,22.5 µM
same,TGI,HOP-92 NSCLC,48.5 µM
same,GI50,HS 578T breast,38.9 µM
same,TGI,HS 578T breast,> 100 µM
same,GI50,HT29 colon,41 µM
same,TGI,HT29 colon,> 100 µM
same,GI50,IGROV1 ovarian,60.3 µM
same,TGI,IGROV1 ovarian,> 100 µM
same,GI50,K-562 leukemia,29.1 µM
same,TGI,K-562 leukemia,> 100 µM
same,GI50,KM12 colon,44.2 µM
same,TGI,KM12 colon,> 100 µM
same,GI50,LOX IMVI melanoma,15.8 µM
same,TGI,LOX IMVI melanoma,64.2 µM
same,GI50,M14 melanoma,23.9 µM
same,TGI,M14 melanoma,> 100 µM
same,GI50,MALME-3M melanoma,18.8 µM
same,TGI,MALME-3M melanoma,49.6 µM
same,GI50,MCF7 breast,21.3 µM
same,TGI,MCF7 breast,44 µM
same,GI50,MDA-MB-231 breast,23.6 µM
same,TGI,MDA-MB-231 breast,> 100 µM
same,GI50,MDA-MB-435,26 µM
same,TGI,MDA-MB-435,> 100 µM
same,GI50,MOLT-4 leukemia,28.7 µM
same,TGI,MOLT-4 leukemia,> 100 µM
same,GI50,NCI-H226 lung,66.4 µM
same,TGI,NCI-H226 lung,> 100 µM
same,GI50,NCI-H23 lung,21.2 µM
same,TGI,NCI-H23 lung,59 µM
same,GI50,NCI-H460 lung,29.1 µM
same,TGI,NCI-H460 lung,> 100 µM
same,GI50,NCI-H522 lung,19.6 µM
same,TGI,NCI-H522 lung,48.3 µM
same,GI50,NCI/ADR-RES ovarian,18.2 µM
same,TGI,NCI/ADR-RES ovarian,66.4 µM
same,GI50,OVCAR-3 ovarian,8.16 µM
same,TGI,OVCAR-3 ovarian,66.4 µM
same,GI50,OVCAR-4 ovarian,17.8 µM
same,TGI,OVCAR-4 ovarian,46.8 µM
same,GI50,OVCAR-5 ovarian,26.6 µM
same,TGI,OVCAR-5 ovarian,94.3 µM
same,GI50,PC-3 prostate,21.5 µM
same,TGI,PC-3 prostate,73.9 µM
same,GI50,RPMI-8226 leukemia,28.6 µM
same,TGI,RPMI-8226 leukemia,96.3 µM
same,GI50,SF-268 CNS,35.7 µM
same,TGI,SF-268 CNS,> 100 µM
same,GI50,SF-295 CNS,22.4 µM
same,TGI,SF-295 CNS,69.7 µM
same,GI50,SF-539 CNS,23.4 µM
same,TGI,SF-539 CNS,75.2 µM
same,GI50,SK-MEL-2 melanoma,34.3 µM
same,TGI,SK-MEL-2 melanoma,> 100 µM
same,GI50,SK-MEL-28 melanoma,40.9 µM
same,TGI,SK-MEL-28 melanoma,> 100 µM
same,GI50,SK-MEL-5 melanoma,18.2 µM
same,TGI,SK-MEL-5 melanoma,39.8 µM
same,GI50,SK-OV-3 ovarian,> 100 µM
same,TGI,SK-OV-3 ovarian,> 100 µM
same,GI50,SN12C renal,24.9 µM
same,TGI,SN12C renal,> 100 µM
same,GI50,SNB-19 CNS,28.8 µM
same,TGI,SNB-19 CNS,> 100 µM
same,GI50,SNB-75 CNS,26.5 µM
same,TGI,SNB-75 CNS,93.5 µM
same,GI50,SR leukemia,46.2 µM
same,TGI,SR leukemia,> 100 µM
same,GI50,SW-620 colon,25.3 µM
same,TGI,SW-620 colon,> 100 µM
same,GI50,T-47D breast,4.93 µM
same,TGI,T-47D breast,38.9 µM
same,GI50,TK-10 renal,38.1 µM
same,TGI,TK-10 renal,> 100 µM
same,GI50,U251 CNS,26 µM
same,TGI,U251 CNS,95.6 µM
same,GI50,UACC-62 melanoma,32.6 µM
same,TGI,UACC-62 melanoma,> 100 µM
same,GI50,UO-31 renal,34.2 µM
same,TGI,UO-31 renal,> 100 µM
CCOC(=O)c1c(N)n(-c2ccccc2)c(=O)n(-c2ccccc2)c1=O,TGI,786-0 renal,> 100 µM
same,TGI,A549 NSCLC,> 100 µM
same,TGI,ACHN renal,> 100 µM
same,TGI,BT-549 breast,> 100 µM
same,TGI,COLO 205 colon,> 100 µM
same,TGI,DU-145 prostate,> 100 µM
same,TGI,HCC-2998 colon,> 100 µM
same,TGI,HCT-15 colon,> 100 µM
same,TGI,HL-60(TB) leukemia,> 100 µM
same,TGI,HOP-92 NSCLC,> 100 µM
same,TGI,HS 578T breast,> 100 µM
same,TGI,HT29 colon,> 100 µM
same,TGI,IGROV1 ovarian,> 100 µM
same,TGI,K-562 leukemia,> 100 µM
same,TGI,KM12 colon,> 100 µM
same,TGI,LOX IMVI melanoma,> 100 µM
same,TGI,M14 melanoma,> 100 µM
same,TGI,MALME-3M melanoma,> 100 µM
same,TGI,MCF7 breast,> 100 µM
same,TGI,MDA-MB-231 breast,> 100 µM
same,TGI,MDA-MB-435,> 100 µM
same,TGI,MOLT-4 leukemia,> 100 µM
same,TGI,NCI-H226 lung,> 100 µM
same,TGI,NCI-H23 lung,> 100 µM
same,TGI,NCI-H460 lung,> 100 µM
same,TGI,NCI-H522 lung,> 100 µM
same,TGI,OVCAR-3 ovarian,> 100 µM
same,TGI,OVCAR-4 ovarian,> 100 µM
same,TGI,OVCAR-5 ovarian,> 100 µM
same,TGI,OVCAR-8 ovarian,> 100 µM
same,TGI,RPMI-8226 leukemia,> 100 µM
same,TGI,RXF 393 renal,> 100 µM
same,TGI,SF-268 CNS,> 100 µM
same,TGI,SF-295 CNS,> 100 µM
same,TGI,SK-MEL-2 melanoma,> 100 µM
same,TGI,SK-MEL-28 melanoma,> 100 µM
same,TGI,SK-MEL-5 melanoma,> 100 µM
same,TGI,SN12C renal,> 100 µM
same,TGI,SNB-19 CNS,> 100 µM
same,TGI,SNB-75 CNS,> 100 µM
same,TGI,SR leukemia,> 100 µM
same,TGI,SW-620 colon,> 100 µM
same,TGI,T-47D breast,> 100 µM
same,TGI,TK-10 renal,> 100 µM
same,TGI,U251 CNS,> 100 µM
same,TGI,UACC-257 melanoma,> 100 µM
same,TGI,UACC-62 melanoma,> 100 µM
same,TGI,UO-31 renal,> 100 µM

# From PubChem BioAssay (NCI)
